Square brackets hold non-standard residues; d marks the D form. Peptide text beside a SMILES is read from it.

The assay deals with SARS-CoV-2-PLpro enzyme (Severe acute respiratory syndrome coronavirus 2, UniProt P0DTD1). Briefly: SARS-CoV-2-PLpro enzyme inhibition assay. In kind it is biochemical. The conditions noted are these: read-out: Percent inhibition. The method, then: The inhibition assay was carried out as follows. 1 μM SARS-CoV-2-PLpro enzyme was incubated with 25 μM Arg-Leu-Arg-Gly-Gly-AMC substrate and 100 μM of the inhibitor peptide tested, in reaction buffer (100 mM NaCl, 50 mM HEPES [pH=7.5], 0.01 mg/mL bovine serum albumin, and 5 mM DTT) to a final volume of 50 μL. A control reaction with no inhibitory peptide was included and serves as the basis for “no inhibition”. Each reaction was carried in triplicate. The percentage inhibition was calculated by […].
As usually defined, the inhibition is the drop in the measured response relative to a control, in per cent. Turning to `CC(C)C[C@@H](NC(=O)[C@@H](N)CCCNC(=N)N)C(=O)N[C@@H](CCCNC(=N)N)C(=O)NCC(=O)NCC(=O)O` [Arg - Leu - Arg - Gly - Gly], the inhibition at 100 µM is 10 to 15%.

`CC(C)C[C@@H](NC(=O)[C@@H](N)CCCNC(=N)N)C(=O)N[C@@H](CCCCN)C(=O)NCC(=O)NCC(=O)O` [Arg - Leu - Lys - Gly - Gly] (H-R[dL]KGG-OH): the inhibition at 100 µM lay in the range of 5 to 10%.

In the case of `CC(C)C[C@@H](NC(=O)[C@@H](N)CCC(=O)O)C(=O)N[C@@H](CC(N)=O)C(=O)NCC(=O)NCC(=O)O` [Glu - Leu - Asn - Gly - Gly] (H-E[dL]NGG-OH), the inhibition at 100 µM was 0%.

For the compound `CC(C)C[C@@H](NC(=O)[C@@H](N)CO)C(=O)N[C@@H](CCCCN)C(=O)NCC(=O)NCC(=O)O` [Ser - Leu - Lys - Gly - Gly] (H-S[dL]KGG-OH), the inhibition at 100 µM was 0%.
